Experiment [1] has as its target T1, Calpain-2 catalytic subunit (Sus scrofa, UniProt P43367).
T1 sequence (P43367 whole entry): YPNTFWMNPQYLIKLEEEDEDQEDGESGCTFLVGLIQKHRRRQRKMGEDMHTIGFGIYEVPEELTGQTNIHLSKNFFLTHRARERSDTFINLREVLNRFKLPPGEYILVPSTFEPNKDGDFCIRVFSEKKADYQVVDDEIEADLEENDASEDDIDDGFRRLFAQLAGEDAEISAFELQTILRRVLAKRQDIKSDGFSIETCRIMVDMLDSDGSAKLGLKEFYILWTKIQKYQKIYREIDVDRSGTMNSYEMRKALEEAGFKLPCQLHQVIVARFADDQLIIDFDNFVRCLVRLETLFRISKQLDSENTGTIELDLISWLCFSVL
Description: pig calpain II inhibitor potency, dose response, biochemical, fluorogenic peptide substrate (AID 1420). Type of experiment: functional.

Experiment [2] concerns the target T2, Mannose-6-phosphate isomerase (Homo sapiens, UniProt P34949).
T2 sequence (P34949 whole entry): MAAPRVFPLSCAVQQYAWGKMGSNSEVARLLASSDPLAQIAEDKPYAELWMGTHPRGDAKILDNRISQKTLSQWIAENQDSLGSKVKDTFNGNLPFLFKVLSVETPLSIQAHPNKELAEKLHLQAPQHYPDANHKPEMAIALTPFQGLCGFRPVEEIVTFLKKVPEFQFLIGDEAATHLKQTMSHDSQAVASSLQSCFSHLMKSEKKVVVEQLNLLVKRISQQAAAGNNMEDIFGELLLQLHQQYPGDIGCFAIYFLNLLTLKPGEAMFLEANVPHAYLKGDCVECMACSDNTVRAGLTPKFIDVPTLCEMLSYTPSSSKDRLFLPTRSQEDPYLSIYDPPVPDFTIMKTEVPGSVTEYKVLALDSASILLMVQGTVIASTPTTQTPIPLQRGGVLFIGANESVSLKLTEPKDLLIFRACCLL
Description: human PMI inhibitors, high substrate, primary screen, biochemical, fluorescence intensity, high mannose 6-phosphate (AID 1220).

In experiment [3] the target is FAD-linked sulfhydryl oxidase ALR (Homo sapiens, UniProt P55789). Description: inhibitors of human ALR sulfhydryl oxidase, dose response, biochemical, H2O2 detection, luminescence, cherry-pick (AID 493248).
Experiment [4] deals with T3, Rac GTPase-activating protein 1 (Homo sapiens, UniProt Q9H0H5).
T3 sequence (Q9H0H5 whole entry): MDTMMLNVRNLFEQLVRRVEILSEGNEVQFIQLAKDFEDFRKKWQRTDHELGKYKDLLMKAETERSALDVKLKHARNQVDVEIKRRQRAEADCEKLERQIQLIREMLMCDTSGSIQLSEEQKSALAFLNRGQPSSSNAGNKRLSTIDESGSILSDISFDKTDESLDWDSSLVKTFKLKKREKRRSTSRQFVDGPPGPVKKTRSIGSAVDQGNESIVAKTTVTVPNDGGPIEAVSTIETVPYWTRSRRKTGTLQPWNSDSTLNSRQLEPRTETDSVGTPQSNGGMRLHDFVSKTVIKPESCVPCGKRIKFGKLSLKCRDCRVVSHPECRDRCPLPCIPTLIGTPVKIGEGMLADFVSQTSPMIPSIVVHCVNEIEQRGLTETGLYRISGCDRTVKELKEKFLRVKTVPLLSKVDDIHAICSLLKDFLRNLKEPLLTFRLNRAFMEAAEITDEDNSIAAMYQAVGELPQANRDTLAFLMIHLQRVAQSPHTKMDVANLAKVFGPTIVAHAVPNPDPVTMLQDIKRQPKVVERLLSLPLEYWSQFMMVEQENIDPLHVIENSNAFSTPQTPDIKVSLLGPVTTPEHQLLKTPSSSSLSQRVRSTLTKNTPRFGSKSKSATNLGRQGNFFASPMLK
Description: MgcRacGAP GTPase-activating activity inhibitors, confirmation, biochemical, ADP Hunter fluorescence, primary and confirmatory (AID 624330). Type of experiment: functional.

Experiment [5] can be described thus: NIH-3T3 fibroblast cytotoxicity, dose response, cytotoxicity control, cell-based, fluorescence, Alamar Blue, secondary assay (AID 2327).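 Further: NIH-3T3 mouse fibroblasts cultured with fluconazole at 8 µg/mL.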 Format: functional.
Experiment [6] in a line: C. albicans growth with fluconazole, confirmation, fluorescence, retest (AID 2467). Format: functional, cell-based.
Experiment [7] relates to Streptococcus sp. 'group A'. Description: growth inhibition of control SK(-) GAS strain, dose response, counter-screen for streptokinase expression inhibitor project, luminescence, kanamycin, BacTiterGlo, confirmation (AID 1900). Type of experiment: functional, organism-based.
The nature of experiment [8]: A Cell Based Secondary Assay To Explore Cytotoxicity of Compounds that Sensitize Mycobacterium Tuberculosis to Beta-Lactam Antibiotics. Format: functional.
The target of a further experiment is T4, Streptokinase A (Streptococcus pyogenes serotype M1, UniProt P10520).
T4 sequence (P10520 whole entry): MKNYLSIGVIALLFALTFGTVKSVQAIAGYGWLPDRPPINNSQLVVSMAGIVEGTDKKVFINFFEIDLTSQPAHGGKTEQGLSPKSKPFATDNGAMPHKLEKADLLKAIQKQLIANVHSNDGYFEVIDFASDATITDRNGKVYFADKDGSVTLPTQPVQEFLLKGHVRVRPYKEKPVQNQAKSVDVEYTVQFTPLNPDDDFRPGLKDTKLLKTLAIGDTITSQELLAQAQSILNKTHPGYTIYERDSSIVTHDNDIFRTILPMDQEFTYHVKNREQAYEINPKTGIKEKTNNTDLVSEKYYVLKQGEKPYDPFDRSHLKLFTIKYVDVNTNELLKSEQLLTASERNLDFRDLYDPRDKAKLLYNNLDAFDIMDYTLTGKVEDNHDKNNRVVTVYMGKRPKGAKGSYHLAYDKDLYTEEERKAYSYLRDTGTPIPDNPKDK
Description: S. pyogenes streptokinase expression inhibitors, potency, dose response, plasminogen activation absorbance, OD405 (AID 1914).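 Further: secreted streptokinase activity via plasminogen activation per viability signal from cell pellet.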 Type of experiment: functional, Streptococcus pyogenes M1 GAS.

Experiment [9] addresses Luciferin 4-monooxygenase (Photinus pyralis, UniProt P08659). Description: firefly luciferase enzyme inhibitors, dose response, biochemical, luminescence (AID 1891).
The nature of experiment [10]: Luminescence Cell-Based Dose Confirmation HTS to Identify Inhibitors of Platelet Dense Granule Release. [Related pubchem assays: 1663 (Primary HTS), 1678 (Summary of Project)]. Format: functional.
In a further experiment the test system is Streptococcus. Description: Group A Streptococcus viability loss, dose response, counter-screen for streptokinase expression inhibitor project, luminescence, BacTiterGlo (AID 1915).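 Further: potency for reduction of bacterial viability or growth.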 Format: functional, organism-based.
For experiment [11], the target named is T5, Polyadenylate-binding protein 1 (Homo sapiens, UniProt P11940). Description: PABP1 MLLE–PAM2 interaction inhibitors, dose response, miRNA deadenylation inhibitor project, biochemical, fluorescence polarization, Cy5-PAM2 peptide, secondary (AID 602260). The note with it: read-out: IC50_Mean. Type of experiment: functional.
Experiment [12] addresses T5, Polyadenylate-binding protein 1. Description: PABP1 MLLE–PAM2 binding inhibitor potency, dose response, biochemical, fluorescence polarization, FITC-PAM2 peptide (AID 602259). Type of experiment: functional. As to conditions: read-out: IC50_Mean.
A further experiment has as its target Paired box protein Pax-8 (Homo sapiens, UniProt Q06710). Description: inhibitors of PAX8-driven TPO luciferase reporter, dose response, RMG-I cells, cherry-pick (AID 687027).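 Further: luciferase reporter driven by Pax8 target thyroperoxidase promoter measured by SteadyGlo luminescence.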 Type of experiment: functional, cell-based.
The nature of experiment [13]: NIH:OVCAR-3 ovarian cancer cell cytotoxicity, dose response, PAX8 inhibitor project, plate reader, dry powder samples (AID 743044). Format: functional, cell-based.
Experiment [14] is described as follows: P. falciparum Dd2 growth inhibitors, dose response, SYBR Green, cherry-picked samples (AID 1159567). Format: functional, cell-based.

Activity calls are given as the source filed them. Some results are limits rather than exact numbers.

FAD-linked sulfhydryl oxidase ALR, sequence (P55789 whole entry): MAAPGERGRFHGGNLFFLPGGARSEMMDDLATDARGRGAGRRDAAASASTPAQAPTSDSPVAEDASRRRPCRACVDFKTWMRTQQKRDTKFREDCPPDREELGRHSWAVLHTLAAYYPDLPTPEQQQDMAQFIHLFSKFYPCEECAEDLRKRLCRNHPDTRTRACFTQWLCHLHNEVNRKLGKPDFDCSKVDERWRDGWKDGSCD
T5 sequence (P11940 whole entry): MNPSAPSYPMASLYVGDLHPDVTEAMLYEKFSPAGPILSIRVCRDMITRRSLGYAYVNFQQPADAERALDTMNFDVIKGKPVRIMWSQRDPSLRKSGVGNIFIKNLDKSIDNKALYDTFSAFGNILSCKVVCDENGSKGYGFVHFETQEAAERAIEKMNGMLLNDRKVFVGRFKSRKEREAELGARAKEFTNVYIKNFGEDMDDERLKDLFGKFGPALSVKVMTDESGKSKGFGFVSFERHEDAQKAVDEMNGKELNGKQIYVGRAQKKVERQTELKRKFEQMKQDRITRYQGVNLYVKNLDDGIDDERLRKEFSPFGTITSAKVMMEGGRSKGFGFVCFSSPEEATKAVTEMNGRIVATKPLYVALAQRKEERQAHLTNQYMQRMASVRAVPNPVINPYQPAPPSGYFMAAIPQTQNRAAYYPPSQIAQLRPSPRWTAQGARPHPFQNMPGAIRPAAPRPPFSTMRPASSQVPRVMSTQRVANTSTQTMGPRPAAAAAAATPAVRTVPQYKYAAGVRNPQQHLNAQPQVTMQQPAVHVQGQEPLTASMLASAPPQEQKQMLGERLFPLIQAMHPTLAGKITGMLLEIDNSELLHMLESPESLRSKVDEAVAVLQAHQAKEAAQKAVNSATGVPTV
Paired box protein Pax-8, sequence (Q06710 whole entry): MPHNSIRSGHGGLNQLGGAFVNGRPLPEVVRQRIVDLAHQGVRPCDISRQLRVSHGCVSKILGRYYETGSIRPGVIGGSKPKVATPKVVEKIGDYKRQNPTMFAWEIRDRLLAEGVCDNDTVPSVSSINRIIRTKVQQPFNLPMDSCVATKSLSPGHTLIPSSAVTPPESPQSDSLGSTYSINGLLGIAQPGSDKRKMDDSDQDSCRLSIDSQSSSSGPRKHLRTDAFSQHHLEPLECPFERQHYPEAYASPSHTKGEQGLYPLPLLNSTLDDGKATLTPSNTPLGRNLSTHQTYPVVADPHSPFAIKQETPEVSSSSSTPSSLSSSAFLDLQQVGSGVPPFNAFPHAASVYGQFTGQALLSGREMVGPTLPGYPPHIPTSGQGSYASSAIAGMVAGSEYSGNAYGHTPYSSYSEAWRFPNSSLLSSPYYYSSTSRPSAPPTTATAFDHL
Luciferin 4-monooxygenase, sequence (P08659 whole entry): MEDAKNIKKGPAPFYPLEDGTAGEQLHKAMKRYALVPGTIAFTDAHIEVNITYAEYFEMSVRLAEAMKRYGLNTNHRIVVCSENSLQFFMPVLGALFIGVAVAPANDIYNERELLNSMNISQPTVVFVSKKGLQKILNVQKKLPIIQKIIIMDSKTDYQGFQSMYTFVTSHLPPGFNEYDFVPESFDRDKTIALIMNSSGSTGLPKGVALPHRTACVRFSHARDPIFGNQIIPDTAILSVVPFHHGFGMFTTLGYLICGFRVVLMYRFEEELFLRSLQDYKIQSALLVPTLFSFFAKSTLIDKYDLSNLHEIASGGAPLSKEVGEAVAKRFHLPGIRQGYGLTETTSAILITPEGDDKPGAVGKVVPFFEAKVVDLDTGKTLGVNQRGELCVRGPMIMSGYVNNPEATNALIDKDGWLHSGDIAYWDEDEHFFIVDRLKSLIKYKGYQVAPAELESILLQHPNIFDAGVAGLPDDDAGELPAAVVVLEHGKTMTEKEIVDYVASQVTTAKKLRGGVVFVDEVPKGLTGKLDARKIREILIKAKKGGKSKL

As to `CCOc1ccc(NC(=O)CCC(=O)n2nc(C)cc2C)cc1`, the IC50 in experiment [1] is < 0.4 µM (not active). For `Cc1ccc(NCc2nc3ccccc3n2CCOc2ccccc2)cc1`, the IC50 in [2] is on record as > 50 µM (not active).

Take `COc1ccc(-c2nc(NC(=O)CCNC(=O)c3ccco3)sc2C)cc1`: in experiment [1], the IC50 is 3.03 µM (not active). Regarding `Cc1ccc(N(CC(=O)Nc2cccc(C)c2)S(=O)(=O)c2cccc3nonc23)cc1`, the IC50 in [1] was 1.1 µM (not active). Consider `CN(C(S)=Nc1ccc(SC(F)F)cc1)c1ccc(O)cc1`, for which, in [2], the IC50 was > 50 µM (not active). Turning to `Cc1ccc2c(c1)CCCN2C(=O)c1ccc2c(c1)OCO2`, the IC50 in [1] is > 50 µM (not active).

Regarding `CN(c1ccc(O)cc1)c1nc(-c2cccnc2)cs1`, the AC50 in experiment [3] is 3.84 µM (active). The IC50 in experiment [4] is 17.5 µM (active). Turning to `O=C(O)CCC(=O)N1CCN(c2ccc(C(=O)c3ccc(F)cc3)cc2)CC1`, in experiment [1], the IC50 is > 50 µM (not active). The same measure, in the same setting: under `[O-][S+](N1CCc2ccccc21)C12CC3CC(CC(C3)C1)C2` (stereo not given) stands 10.8 µM (not active). `Cc1ccc(NCc2ccc(O)c3ncccc23)cc1`: the EC50 is > 160 µM (inconclusive) in [5] and > 38 µM (not active) in experiment [6]. Besides, the IC50 in experiment [2] is listed as > 50 µM (not active). `Cc1cc(NC(=O)/C=C/c2ccccc2Cl)n(-c2nc3ccccc3[nH]2)n1`: the EC50 in experiment [7] was 7.03 µM (active); at Streptokinase A, > 150 µM (not active); in [9], 3.94 µM (active); in experiment [10], 13.2 µM (active); in the experiment on Streptococcus it was > 150 µM (not active). The cytotoxic concentration (CC50) in experiment [8] was 14.5 µM (active). As for `Cc1ccc(C2SCC(=O)N2c2ccccc2)cc1` (stereo not given), in [3], the AC50 was < 0.005 µM (active). Besides, the IC50 in [11] and in [12] was > 66 µM (inactive) in each case.

Regarding `CSCc1ccc(C(=O)N2CCCC(Nc3ccc(F)cc3)C2)o1` (stereo not given), the AC50 in [3] was 2.76 µM (active). For `O=C(CCc1c[nH]c2ccccc12)NCCc1ccc(O)cc1`, in experiment [3], the AC50 is 7.62 µM (active). For the same compound, the IC50 in experiment [4] is 112 µM (active).

Take `O=C(Cc1ccccc1)N1CC[C@H]2[C@H](CO)Nc3ccc(C4=CCCCC4)cc3[C@H]21`: the concentration at half-maximal activity (AC50) on Paired box protein Pax-8 is 6.67 µM (active); in experiment [13], 51.3 µM (active). For `C/C(=N\OCC(=O)Nc1ccc(Br)cc1)c1cccs1`, the IC50 in [1] is on record as > 50 µM (not active). For the compound `CC(=N\Nc1ccc(Cl)cc1)/C(=N/O)C(=O)Nc1ccccc1`, the concentration at half-maximal activity (AC50) in experiment [3] was 0.104 µM (active).

Consider `CCN(CC)c1ccc(/C=N/NC(=O)CC(C)C)cc1`, for which the concentration at half-maximal activity (AC50) in experiment [3] was 2.97 µM (active).

In the case of `C/C(=N\Nc1ccc([N+](=O)[O-])cc1)c1ccc(O)cc1`, the EC50 in experiment [5] was > 150 µM (inactive); in [6], > 38 µM (not active). Moreover, in experiment [3], the AC50 was 0.136 µM (active). Consider `COc1cccc(-c2ccc([C@@H]3[C@H](CO)N4CCCCN(C(=O)c5ccc(F)cc5)C[C@@H]34)cc2)c1`, for which the AC50 in experiment [14] is 5.39 µM (active). As for `C[C@H](CO)N1C[C@H](C)[C@H](CN(C)Cc2ccc(Oc3ccccc3)cc2)Oc2ccc(NS(=O)(=O)c3ccc(Cl)cc3)cc2CC1=O`, in experiment [14], the AC50 was 7.51 µM (active).

Source of the values: ChEMBL document CHEMBL1201862, “PubChem BioAssay data set” (2004).
